Experiments:
Test in all cases: Test B pre-/postemergence plant response
Assay type in all cases: in vivo
[1] = test system: Italian ryegrass (Lolium multiflorum); details: for Ryegrass, Italian plant response rating (0 to 100 scale): 0 is no effect
How it was run: (§1)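 Compound in solvent + surfactant applied pre-em (loam/sand) or post-em (plants 2–18 cm, peat medium); greenhouse hold 13–15 days; visual 0–100 control score.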

[2] = test system: Surinam grass (Brachiaria decumbens); details: for Surinam Grass plant response rating (0 to 100 scale): 0 is no effect
How it was run: as §1

[3] = test system: corn (Zea mays); details: for Corn plant response rating (0 to 100 scale): 0 is no effect
How it was run: as §1

[4] = test system: goosegrass (Eleusine indica); details: for Goosegrass plant response rating (0 to 100 scale): 0 is no effect
How it was run: as §1

[5] = test system: lambsquarters (Chenopodium album); details: for Lambsquarters plant response rating (0 to 100 scale): 0 is no effect
How it was run: as §1

[6] = test system: large crabgrass (Digitaria sanguinalis); details: for Crabgrass, Large plant response rating (0 to 100 scale): 0 is no effect
How it was run: as §1

[7] = test system: pigweed (Amaranthus retroflexus); details: for Pigweed plant response rating (0 to 100 scale): 0 is no effect
How it was run: as §1

[8] = test system: woolly cupgrass (Eriochloa villosa); details: for Cupgrass, Woolly plant response rating (0 to 100 scale): 0 is no effect
How it was run: as §1

[9] = Postemergence, 31 g ai/ha, 0 to 100 scale (0 no effect, 100 complete control)
[10] = Postemergence, 250 g ai/ha, scale 0 to 100 (0 no effect, 100 complete control), 13 to 15 days
[11] = Postemergence, 62 g ai/ha, scale 0 to 100 (0 no effect, 100 complete control)
[12] = Postemergence, 125 g ai/ha, scale 0 to 100 (0 no effect, 100 complete control)
[13] = 31 g ai/ha, postemergence, scale 0 to 100, 0 is no effect, 100 is complete control
[14] = 62 g ai/ha, postemergence, 100 is complete control, 13 to 15 days
[15] = Postemergence, 250 g ai/ha, scale 0 to 100 (0 no effect, 100 complete control)
[16] = Postemergence, 125 g ai/ha, visual rating after 13 to 15 days, scale 0 (no effect) to 100 (complete control)

Compound: CCCn1c(-c2ccccc2)ncc(C(=O)C2=C(O)C3CCC(C3)C2=O)c1=O (stereo not shown) [Compound 226]
- Plant response rating, Ryegrass, Italian [1, 9]: 0
- Plant response rating, Ryegrass, Italian [1, 10]: 20
- Plant response rating, Ryegrass, Italian [1, 11]: 0
- Plant response rating, Surinam Grass [2, 9]: 75
- Plant response rating, Surinam Grass [2, 10]: 85
- Plant response rating, Surinam Grass [2, 11]: 75
- Plant response rating, Corn [3, 9]: 75
- Plant response rating, Corn [3, 12]: 98
- Plant response rating, Corn [3, 10]: 98
- Plant response rating, Corn [3, 11]: 80
- Plant response rating, Goosegrass [4, 9]: 80
- Plant response rating, Goosegrass [4, 12]: 85
- Plant response rating, Goosegrass [4, 10]: 85
- Plant response rating, Goosegrass [4, 11]: 80
- Plant response rating, Lambsquarters [5, 9]: 90
- Plant response rating, Lambsquarters [5, 12]: 95
- Plant response rating, Lambsquarters [5, 10]: 98
- Plant response rating, Lambsquarters [5, 11]: 90
- Plant response rating, Crabgrass, Large [6, 9]: 85
- Plant response rating, Crabgrass, Large [6, 12]: 95
- Plant response rating, Crabgrass, Large [6, 10]: 98
- Plant response rating, Crabgrass, Large [6, 11]: 85
- Plant response rating, Pigweed [7, 9]: 75
- Plant response rating, Pigweed [7, 10]: 98
- Plant response rating, Pigweed [7, 11]: 85
- Plant response rating, Cupgrass, Woolly [8, 9]: 80
- Plant response rating, Cupgrass, Woolly [8, 12]: 85
- Plant response rating, Cupgrass, Woolly [8, 10]: 95
- Plant response rating, Cupgrass, Woolly [8, 11]: 80

Compound: O=C1CCCC(O)=C1C(=O)c1cnc(C2CC2)n(-c2ccccc2)c1=O [Compound 87]
- Plant response rating, Ryegrass, Italian [1, 13]: 5
- Ryegrass, Italian plant response rating (0 to 100 scale) [1, 14]: 10
- Plant response rating, Ryegrass, Italian [1, 15]: 60
- Plant response rating, Surinam Grass [2, 13]: 75
- Surinam Grass plant response rating (0 to 100 scale) [2, 14]: 75
- Plant response rating, Surinam Grass [2, 15]: 85
- Plant response rating, Corn [3, 13]: 20
- Corn plant response rating (0 to 100 scale) [3, 14]: 55
- Plant response rating, Corn [3, 16]: 75
- Plant response rating, Corn [3, 15]: 75
- Plant response rating, Goosegrass [4, 13]: 75
- Goosegrass plant response rating (0 to 100 scale) [4, 14]: 80
- Plant response rating, Goosegrass [4, 15]: 98
- Plant response rating, Lambsquarters [5, 13]: 98
- Lambsquarters plant response rating (0 to 100 scale) [5, 14]: 98
- Plant response rating, Lambsquarters [5, 15]: 100
- Plant response rating, Crabgrass, Large [6, 13]: 85
- Crabgrass, Large plant response rating (0 to 100 scale) [6, 14]: 85
- Plant response rating, Crabgrass, Large [6, 16]: 95
- Plant response rating, Crabgrass, Large [6, 15]: 98
- Plant response rating, Pigweed [7, 13]: 98
- Pigweed plant response rating (0 to 100 scale) [7, 14]: 98
- Plant response rating, Pigweed [7, 15]: 100
- Plant response rating, Cupgrass, Woolly [8, 13]: 50
- Cupgrass, Woolly plant response rating (0 to 100 scale) [8, 14]: 75
- Plant response rating, Cupgrass, Woolly [8, 16]: 75
- Plant response rating, Cupgrass, Woolly [8, 15]: 90

Compound: CCCn1c(-c2cccc(OC)c2)ncc(C(=O)C2=C(O)CCCC2=O)c1=O [Compound 100]
- Ryegrass, Italian plant response rating (0 to 100 scale) [1, 14]: 5
- Plant response rating, Ryegrass, Italian [1, 12]: 10
- Plant response rating, Ryegrass, Italian [1, 15]: 50
- Surinam Grass plant response rating (0 to 100 scale) [2, 14]: 65
- Plant response rating, Surinam Grass [2, 12]: 65
- Plant response rating, Surinam Grass [2, 15]: 75
- Plant response rating, Corn [3, 13]: 0
- Corn plant response rating (0 to 100 scale) [3, 14]: 10
- Plant response rating, Corn [3, 12]: 20
- Plant response rating, Corn [3, 15]: 45
- Plant response rating, Goosegrass [4, 13]: 70
- Goosegrass plant response rating (0 to 100 scale) [4, 14]: 70
- Plant response rating, Goosegrass [4, 12]: 75
- Plant response rating, Goosegrass [4, 15]: 75
- Plant response rating, Lambsquarters [5, 13]: 95
- Lambsquarters plant response rating (0 to 100 scale) [5, 14]: 98
- Plant response rating, Lambsquarters [5, 12]: 98
- Plant response rating, Lambsquarters [5, 15]: 98
- Plant response rating, Crabgrass, Large [6, 13]: 55
- Crabgrass, Large plant response rating (0 to 100 scale) [6, 14]: 60
- Plant response rating, Crabgrass, Large [6, 12]: 75
- Plant response rating, Crabgrass, Large [6, 15]: 80
- Plant response rating, Pigweed [7, 13]: 90
- Pigweed plant response rating (0 to 100 scale) [7, 14]: 98
- Plant response rating, Pigweed [7, 12]: 98
- Plant response rating, Pigweed [7, 15]: 98
- Cupgrass, Woolly plant response rating (0 to 100 scale) [8, 14]: 65
- Plant response rating, Cupgrass, Woolly [8, 12]: 70
- Plant response rating, Cupgrass, Woolly [8, 15]: 75

Compound: CCCn1c(-c2cccc(F)c2)ncc(C(=O)C2=C(O)CCCC2=O)c1=O [Compound 127]
- Ryegrass, Italian plant response rating (0 to 100 scale) [1, 14]: 5
- Plant response rating, Ryegrass, Italian [1, 9]: 0
- Plant response rating, Ryegrass, Italian [1, 12]: 5
- Plant response rating, Ryegrass, Italian [1, 10]: 30
- Surinam Grass plant response rating (0 to 100 scale) [2, 14]: 75
- Plant response rating, Surinam Grass [2, 9]: 75
- Plant response rating, Surinam Grass [2, 12]: 85
- Plant response rating, Surinam Grass [2, 10]: 90
- Corn plant response rating (0 to 100 scale) [3, 14]: 25
- Plant response rating, Corn [3, 9]: 5
- Plant response rating, Corn [3, 12]: 25
- Plant response rating, Corn [3, 10]: 75
- Goosegrass plant response rating (0 to 100 scale) [4, 14]: 75
- Plant response rating, Goosegrass [4, 9]: 65
- Plant response rating, Goosegrass [4, 12]: 75
- Plant response rating, Goosegrass [4, 10]: 85
- Lambsquarters plant response rating (0 to 100 scale) [5, 14]: 85
- Plant response rating, Lambsquarters [5, 9]: 75
- Plant response rating, Lambsquarters [5, 12]: 90
- Plant response rating, Lambsquarters [5, 10]: 95
- Crabgrass, Large plant response rating (0 to 100 scale) [6, 14]: 85
- Plant response rating, Crabgrass, Large [6, 9]: 80
- Plant response rating, Crabgrass, Large [6, 12]: 90
- Plant response rating, Crabgrass, Large [6, 10]: 95
- Pigweed plant response rating (0 to 100 scale) [7, 14]: 95
- Plant response rating, Pigweed [7, 9]: 80
- Plant response rating, Pigweed [7, 12]: 95
- Plant response rating, Pigweed [7, 10]: 100
- Cupgrass, Woolly plant response rating (0 to 100 scale) [8, 14]: 75
- Plant response rating, Cupgrass, Woolly [8, 9]: 75
- Plant response rating, Cupgrass, Woolly [8, 12]: 85
- Plant response rating, Cupgrass, Woolly [8, 10]: 85

Compound: O=C1CCCC(O)=C1C(=O)c1cnc(-c2cccs2)n(CC2CCCO2)c1=O (stereo not shown) [Compound 109]
- Ryegrass, Italian plant response rating (0 to 100 scale) [1, 14]: 0
- Plant response rating, Ryegrass, Italian [1, 12]: 5
- Plant response rating, Ryegrass, Italian [1, 15]: 40
- Surinam Grass plant response rating (0 to 100 scale) [2, 14]: 65
- Plant response rating, Surinam Grass [2, 12]: 65
- Plant response rating, Surinam Grass [2, 15]: 80
- Plant response rating, Corn [3, 13]: 0
- Corn plant response rating (0 to 100 scale) [3, 14]: 15
- Plant response rating, Corn [3, 12]: 60
- Plant response rating, Corn [3, 15]: 60
- Plant response rating, Goosegrass [4, 13]: 65
- Goosegrass plant response rating (0 to 100 scale) [4, 14]: 75
- Plant response rating, Goosegrass [4, 12]: 80
- Plant response rating, Goosegrass [4, 15]: 85
- Plant response rating, Lambsquarters [5, 13]: 98
- Lambsquarters plant response rating (0 to 100 scale) [5, 14]: 98
- Plant response rating, Lambsquarters [5, 12]: 100
- Plant response rating, Lambsquarters [5, 15]: 100
- Plant response rating, Crabgrass, Large [6, 13]: 65
- Crabgrass, Large plant response rating (0 to 100 scale) [6, 14]: 75
- Plant response rating, Crabgrass, Large [6, 12]: 75
- Plant response rating, Crabgrass, Large [6, 15]: 85
- Plant response rating, Pigweed [7, 13]: 100
- Pigweed plant response rating (0 to 100 scale) [7, 14]: 100
- Plant response rating, Pigweed [7, 12]: 100
- Plant response rating, Pigweed [7, 15]: 100
- Cupgrass, Woolly plant response rating (0 to 100 scale) [8, 14]: 60
- Plant response rating, Cupgrass, Woolly [8, 12]: 60
- Plant response rating, Cupgrass, Woolly [8, 15]: 75

Compound: COCCCn1c(-c2cccc(F)c2)ncc(C(=O)C2=C(O)CCCC2=O)c1=O [Compound 126]
- Ryegrass, Italian plant response rating (0 to 100 scale) [1, 14]: 5
- Plant response rating, Ryegrass, Italian [1, 9]: 0
- Plant response rating, Ryegrass, Italian [1, 12]: 5
- Plant response rating, Ryegrass, Italian [1, 15]: 50
- Surinam Grass plant response rating (0 to 100 scale) [2, 14]: 80
- Plant response rating, Surinam Grass [2, 9]: 70
- Plant response rating, Surinam Grass [2, 12]: 85
- Plant response rating, Surinam Grass [2, 15]: 98
- Corn plant response rating (0 to 100 scale) [3, 14]: 30
- Plant response rating, Corn [3, 9]: 10
- Plant response rating, Corn [3, 12]: 55
- Plant response rating, Corn [3, 15]: 80
- Goosegrass plant response rating (0 to 100 scale) [4, 14]: 70
- Plant response rating, Goosegrass [4, 9]: 65
- Plant response rating, Goosegrass [4, 12]: 75
- Plant response rating, Goosegrass [4, 15]: 85
- Lambsquarters plant response rating (0 to 100 scale) [5, 14]: 85
- Plant response rating, Lambsquarters [5, 9]: 70
- Plant response rating, Lambsquarters [5, 12]: 85
- Plant response rating, Lambsquarters [5, 15]: 98
- Crabgrass, Large plant response rating (0 to 100 scale) [6, 14]: 80
- Plant response rating, Crabgrass, Large [6, 9]: 75
- Plant response rating, Crabgrass, Large [6, 12]: 85
- Plant response rating, Crabgrass, Large [6, 15]: 90
- Pigweed plant response rating (0 to 100 scale) [7, 14]: 95
- Plant response rating, Pigweed [7, 9]: 75
- Plant response rating, Pigweed [7, 12]: 98
- Plant response rating, Pigweed [7, 15]: 98
- Cupgrass, Woolly plant response rating (0 to 100 scale) [8, 14]: 75
- Plant response rating, Cupgrass, Woolly [8, 9]: 65
- Plant response rating, Cupgrass, Woolly [8, 12]: 85
- Plant response rating, Cupgrass, Woolly [8, 15]: 90

From patent US8952024B2, “Herbicidal pyrimidone derivatives” (E I du Pont de Nemours and Company, priority 2009, dated 2015)
